Measured values: BindingDB's records for doi:10.1021/jm200866y (Merck Serono, 2011)

What was measured:
[1] = Inhibition of CRTH2-mediated chemotaxis of human eosinophils towards PGD2 after 30 mins by fluorescence counter
[2] = Antagonist activity at CRTH2 in human blood cells assessed as inhibition of PGD2-induced eosinophil cell shape change after 10 mins by flow cytometry

Row | SMILES | IC50 [1] | IC50 [2]
1 | O=C(O)COc1ccc(Cl)cc1C#Cc1ccccc1Cl | 0.123 µM | –
2 | O=C(O)COc1ccc(Cl)cc1C#Cc1cccc(Cl)c1 | – | 6.9 µM
3 | O=C(O)COc1ccc(Cl)cc1C#Cc1ccc(CO)cc1F | – | 0.68 µM
4 | O=C(O)COc1ccc(Cl)cc1C#Cc1cccc(S(=O)(=O)CCO)c1 | – | 0.99 µM
5 | Cc1ccc(S(C)(=O)=O)cc1C#Cc1cc(Cl)ccc1OCC(=O)O | – | 0.064 µM
6 | CS(=O)(=O)c1ccc(F)c(C#Cc2cc(Cl)ccc2OCC(=O)O)c1 | – | 0.095 µM
7 | CS(=O)(=O)c1ccc(Cl)c(C#Cc2cc(Cl)ccc2OCC(=O)O)c1 | – | 0.026 µM
8 | CCCc1ccc(S(C)(=O)=O)cc1C#Cc1cc(Cl)ccc1OCC(=O)O | – | 1.2 µM
9 | CC(C)c1ccc(S(C)(=O)=O)cc1C#Cc1cc(Cl)ccc1OCC(=O)O | – | 0.36 µM
10 | CCCS(=O)(=O)c1ccc(C)c(C#Cc2cc(Cl)ccc2OCC(=O)O)c1 | – | 0.081 µM
11 | Cc1ccc(S(=O)(=O)C(C)C)cc1C#Cc1cc(Cl)ccc1OCC(=O)O | – | 0.19 µM
12 | Cc1ccc(S(=O)(=O)CC(C)C)cc1C#Cc1cc(Cl)ccc1OCC(=O)O | – | 0.12 µM
13 | Cc1ccc(S(=O)(=O)c2ccccc2)cc1C#Cc1cc(Cl)ccc1OCC(=O)O | – | 0.26 µM
14 | Cc1ccc(S(=O)(=O)CCCO)cc1C#Cc1cc(Cl)ccc1OCC(=O)O | – | 0.31 µM
15 | CCCS(=O)(=O)c1ccc(F)c(C#Cc2cc(Cl)ccc2OCC(=O)O)c1 | – | 0.023 µM
16 | CC(C)S(=O)(=O)c1ccc(F)c(C#Cc2cc(Cl)ccc2OCC(=O)O)c1 | – | 0.091 µM
17 | CCCS(=O)(=O)c1ccc(Cl)c(C#Cc2cc(Cl)ccc2OCC(=O)O)c1 | – | 0.023 µM
18 | CC(C)S(=O)(=O)c1ccc(Cl)c(C#Cc2cc(Cl)ccc2OCC(=O)O)c1 | – | 0.067 µM
19 | Cc1ccc(S(=O)(=O)N(C)C)cc1C#Cc1cc(Cl)ccc1OCC(=O)O | – | 0.023 µM
20 | CCNS(=O)(=O)c1ccc(C)c(C#Cc2cc(Cl)ccc2OCC(=O)O)c1 | – | 0.04 µM
21 | Cc1ccc(S(=O)(=O)NC(C)C)cc1C#Cc1cc(Cl)ccc1OCC(=O)O | – | 0.25 µM
22 | Cc1ccc(S(=O)(=O)N(C)C(C)C)cc1C#Cc1cc(Cl)ccc1OCC(=O)O | – | 0.14 µM
23 | Cc1ccc(S(=O)(=O)N2CCCCC2C)cc1C#Cc1cc(Cl)ccc1OCC(=O)O (centres undefined) | – | 0.31 µM
24 | COCCN(C)S(=O)(=O)c1ccc(C)c(C#Cc2cc(Cl)ccc2OCC(=O)O)c1 | – | 0.077 µM
25 | COCCNS(=O)(=O)c1ccc(C)c(C#Cc2cc(Cl)ccc2OCC(=O)O)c1 | – | 0.088 µM
26 | CN(C)S(=O)(=O)c1cncc(C#Cc2cc(Cl)ccc2OCC(=O)O)c1 | – | 0.289 µM
27 | O=C(O)COc1ccc(Cl)cc1C#Cc1ccc2c(c1)S(=O)(=O)c1ccccc1-2 | – | 4.3 µM
28 | CCCS(=O)(=O)c1cccc(C#Cc2cc(Cl)ccc2OCC(=O)O)c1 | – | 0.75 µM
29 | CCN(Cc1cc(-c2ccc(OC)cn2)ccc1-c1cc(CC(=O)O)ccc1OC)C(=O)C1CC1 | – | 0.003 µM
